# pIC50: −log10 of the molar value.
# Biological target: Escherichia coli DNA gyrase A/B tetramer (Escherichia coli, UniProt P0AES4+P0AES6)
# Test: DNA gyrase supercoiling activity fluorescence polarisation assay
# Assay type: biochemical
# Procedure: The supercoiling reactions may be quenched by the addition of 10 microliters/well of 40 nM oligodeoxynucleotide probe in 3× triplex-forming buffer consisting of 150 mM NaCl, and 150 mM sodium acetate at pH 3.5. The oligodeoxynucleotide probe may be 5′-BODIPY-FL-labeled […]. After 60 minutes, the fluorescence anisotropy of the BODIPY-FL may be measured in a Tecan Ultra plate reader, using 485 nm excitation and 535 nm emission filters equipped with polarizers. The IC50 may be determined by nonliner regression using two control reactions. The first contains no test compound but 0.8% DMSO (100% activity) while the second control reaction contains 5 uM Ciprofloxacin and 0.8% DMSO (0% activity).
# Sequence of Escherichia coli DNA gyrase A/B tetramer (P0AES4 whole entry, one chain of several): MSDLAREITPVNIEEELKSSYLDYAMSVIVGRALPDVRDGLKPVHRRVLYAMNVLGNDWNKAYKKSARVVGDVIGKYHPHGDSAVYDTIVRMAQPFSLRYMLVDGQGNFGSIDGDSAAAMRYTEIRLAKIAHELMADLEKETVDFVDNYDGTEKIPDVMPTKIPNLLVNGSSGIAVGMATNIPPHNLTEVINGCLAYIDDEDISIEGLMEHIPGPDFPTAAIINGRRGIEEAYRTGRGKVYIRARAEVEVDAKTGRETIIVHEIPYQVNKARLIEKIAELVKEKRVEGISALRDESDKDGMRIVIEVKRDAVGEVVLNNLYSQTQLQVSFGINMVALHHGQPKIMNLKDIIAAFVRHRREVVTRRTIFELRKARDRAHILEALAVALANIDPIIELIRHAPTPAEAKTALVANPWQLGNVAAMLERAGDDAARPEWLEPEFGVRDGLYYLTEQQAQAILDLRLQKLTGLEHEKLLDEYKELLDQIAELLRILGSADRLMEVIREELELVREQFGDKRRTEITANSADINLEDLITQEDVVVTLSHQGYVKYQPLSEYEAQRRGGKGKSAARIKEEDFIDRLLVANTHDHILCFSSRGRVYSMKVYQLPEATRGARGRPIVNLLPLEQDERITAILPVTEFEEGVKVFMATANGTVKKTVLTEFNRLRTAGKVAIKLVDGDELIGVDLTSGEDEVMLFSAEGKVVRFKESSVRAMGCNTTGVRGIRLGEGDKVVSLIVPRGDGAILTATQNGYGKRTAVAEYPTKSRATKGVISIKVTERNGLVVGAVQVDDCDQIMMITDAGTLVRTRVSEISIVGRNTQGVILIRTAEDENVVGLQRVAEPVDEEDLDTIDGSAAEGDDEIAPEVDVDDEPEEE
row,Compound,pIC50
1,"Cc1noc(C)c1-c1cc2c(cn1)N1C[C@@H](C)O[C@@H](C)[C@@H]1C1(C2)C(=O)NC(=O)NC1=O (relative stereo) [Example 64, (6aS,7S,9R)-rel-3-(3,5-Dimethylisoxazol-4-yl)-7,9-dimethyl-6a,7,9,10-tetrahydro-2′H,5H-spiro[1,4-oxazino[4,3-a][1,7]naphthyridine-6,5′-pyrimidine]-2′,4′,6′(1′H,3′H)-trione]",< 4.08
2,"C[C@@H]1CN2c3cnc(-c4ccncc4)cc3CC3(C(=O)NC(=O)NC3=O)[C@H]2[C@H](C)O1 (relative stereo) [Example 65, (6aS,7S,9R)-rel-7,9-Dimethyl-3-(pyridin-4-yl)-6a,7,9,10-tetrahydro-2′H,5H-spiro[1,4-oxazino[4,3-a][1,7]naphthyridine-6,5′-pyrimidine]-2′,4′,6′(1′H,3′H)-trione]",< 5.00
3,"C[C@@H]1CN2c3cnc(-c4cnn(C)c4)cc3CC3(C(=O)NC(=O)NC3=O)[C@H]2[C@H](C)O1 (relative stereo) [Example 66, (6aS,7S,9R)-rel-7,9-dimethyl-3-(1-methyl-1H-pyrazol-4-yl)-6a,7,9,10-tetrahydro-2′H,5H-spiro[1,4-oxazino[4,3-a][1,7]naphthyridine-6,5′-pyrimidine]-2′,4′,6′(1′H,3′H)-trione]",< 4.08
4,"C[C@@H]1CN2c3ccc(-c4cc5ccccc5o4)nc3CC3(C(=O)NC(=O)NC3=O)[C@H]2[C@H](C)O1 (relative stereo) [Example 68, (2R,4S,4aS)-rel-8-(1-Benzofuran-2-yl)-2,4-dimethyl-1,2,4,4a-tetrahydro-2′H,6H-spiro[1,4-oxazino[4,3-a][1,5]naphthyridine-5,5′-pyrimidine]-2′,4′,6′(1′H,3′H)-trione]",5.10
5,"C[C@@H]1CN2c3ccc(-c4ccnn4C)nc3CC3(C(=O)NC(=O)NC3=O)[C@H]2[C@H](C)O1 (relative stereo) [Example 70, (2R,4S,4aS)-rel-2,4-Dimethyl-8-(1-methyl-1H-pyrazol-5-yl)-1,2,4,4a-tetrahydro-2′H,6H-spiro[1,4-oxazino[4,3-a][1,5]naphthyridine-5,5′-pyrimidine]-2′,4′,6′(1′H,3′H)-trione]",5.52
6,"COc1ccncc1-c1ccc2c(n1)CC1(C(=O)NC(=O)NC1=O)[C@H]1[C@H](C)O[C@H](C)CN21 (relative stereo) [Example 71, (2R,4S,4aS)-rel-8-(4-Methoxypyridin-3-yl)-2,4-dimethyl-1,2,4,4a-tetrahydro-2′H,6H-spiro[1,4-oxazino[4,3-a][1,5]naphthyridine-5,5′-pyrimidine]-2′,4′,6′(1′H,3′H)-trione]",4.80
7,"C[C@@H]1CN2c3ccc(-c4cncnc4)nc3CC3(C(=O)NC(=O)NC3=O)[C@H]2[C@H](C)O1 (relative stereo) [Example 73, (2R,4S,4aS)-rel-2,4-Dimethyl-8-(pyrimidin-5-yl)-1,2,4,4a-tetrahydro-2′H,6H-spiro[1,4-oxazino[4,3-a][1,5]naphthyridine-5,5′-pyrimidine]-2′,4′,6′(1′H,3′H)-trione]",5.52
8,"C[C@@H]1CN2c3ccc(-c4cccnc4)nc3CC3(C(=O)NC(=O)NC3=O)[C@H]2[C@H](C)O1 (relative stereo) [Example 74, (2R,4S,4aS)-rel-2,4-Dimethyl-8-(pyridin-3-yl)-1,2,4,4a-tetrahydro-2′H,6H-spiro[1,4-oxazino[4,3-a][1,5]naphthyridine-5,5′-pyrimidine]-2′,4′,6′(1′H,3′H)-trione]",5.40
9,"C[C@@H]1CN2c3ccc(-c4cccc5cccnc45)nc3CC3(C(=O)NC(=O)NC3=O)[C@H]2[C@H](C)O1 (relative stereo) [Example 75, (2R,4S,4aS)-rel-2,4-Dimethyl-8-(quinolin-8-yl)-1,2,4,4a-tetrahydro-2′H,6H-spiro[1,4-oxazino[4,3-a][1,5]naphthyridine-5,5′-pyrimidine]-2′,4′,6′(1′H,3′H)-trione]",5.10
10,"C[C@@H]1CN2c3ccc(-c4ccoc4)nc3CC3(C(=O)NC(=O)NC3=O)[C@H]2[C@H](C)O1 (relative stereo) [Example 76, (2R,4S,4aS)-rel-8-(Furan-3-yl)-2,4-dimethyl-1,2,4,4a-tetrahydro-2′H,6H-spiro[1,4-oxazino[4,3-a][1,5]naphthyridine-5,5′-pyrimidine]-2′,4′,6′(1′H,3′H)-trione]",4.68
11,"Cc1noc(C)c1-c1ccc2c(n1)CC1(C(=O)NC(=O)NC1=O)[C@H]1[C@H](C)O[C@H](C)CN21 (relative stereo) [Example 77, (2R,4S,4aS)-rel-8-(3,5-Dimethylisoxazol-4-yl)-2,4-dimethyl-1,2,4,4a-tetrahydro-2′H,6H-spiro[1,4-oxazino[4,3-a][1,5]naphthyridine-5,5′-pyrimidine]-2′,4′,6′(1′H,3′H)-trione]",5.10
12,"C[C@@H]1CN2c3ccc(-c4ccncc4)nc3CC3(C(=O)NC(=O)NC3=O)[C@H]2[C@H](C)O1 (relative stereo) [Example 78, (2R,4S,4aS)-rel-2,4-dimethyl-8-(pyridin-4-yl)-1,2,4,4a-tetrahydro-2′H,6H-spiro[1,4-oxazino[4,3-a][1,5]naphthyridine-5,5′-pyrimidine]-2′,4′,6′(1′H,3′H)-trione]",5.70
13,"C[C@@H]1CN2c3ccc(-c4cnn(C)c4)nc3CC3(C(=O)NC(=O)NC3=O)[C@H]2[C@H](C)O1 (relative stereo) [Example 79, (2R,4S,4aS)-rel-2,4-Dimethyl-8-(1-methyl-1H-pyrazol-4-yl)-1,2,4,4a-tetrahydro-2′H,6H-spiro[1,4-oxazino[4,3-a][1,5]naphthyridine-5,5′-pyrimidine]-2′,4′,6′(1′H,3′H)-trione]",4.77
14,"C[C@@H]1CN2c3ccc(-c4cnccn4)nc3CC3(C(=O)NC(=O)NC3=O)[C@H]2[C@H](C)O1 (relative stereo) [Example 80, (2R,4S,4aS)-rel-2,4-Dimethyl-8-(pyrazin-2-yl)-1,2,4,4a-tetrahydro-2′H,6H-spiro[1,4-oxazino[4,3-a][1,5]naphthyridine-5,5′-pyrimidine]-2′,4′,6′(1′H,3′H)-trione]",< 5.30
15,"C[C@@H]1CN2c3ncc(-c4ccc(F)cc4)cc3CC3(C(=O)NC(=O)NC3=O)[C@H]2[C@H](C)O1 (relative stereo) [Example 81, (6aS,7S,9R)-rel-3-(4-Fluorophenyl)-7,9-dimethyl-6a,7,9,10-tetrahydro-2′H,5H-spiro[1,4-oxazino[4,3-a][1,8]naphthyridine-6,5′-pyrimidine]-2′,4′,6′(1′H,3′H)-trione]",5.10
16,"Cc1ccccc1-c1cnc2c(c1)CC1(C(=O)NC(=O)NC1=O)[C@H]1[C@H](C)O[C@H](C)CN21 (relative stereo) [Example 82, (6aS,7S,9R)-rel-7,9-Dimethyl-3-(2-methylphenyl)-6a,7,9,10-tetrahydro-2′H,5H-spiro[1,4-oxazino[4,3-a][1,8]naphthyridine-6,5′-pyrimidine]-2′,4′,6′(1′H,3′H)-trione]",< 4.08
17,"COc1ccccc1-c1cnc2c(c1)CC1(C(=O)NC(=O)NC1=O)[C@H]1[C@H](C)O[C@H](C)CN21 (relative stereo) [Example 83, (6aS,7S,9R)-rel-3-(2-Methoxyphenyl)-7,9-dimethyl-6a,7,9,10-tetrahydro-2′H,5H-spiro[1,4-oxazino[4,3-a][1,8]naphthyridine-6,5′-pyrimidine]-2′,4′,6′(1′H,3′H)-trione]",< 4.08
18,"C[C@@H]1CN2c3ncc(-c4ccccc4)cc3CC3(C(=O)NC(=O)NC3=O)[C@H]2[C@H](C)O1 (relative stereo) [Example 84, (6aS,7S,9R)-rel-7,9-Dimethyl-3-phenyl-6a,7,9,10-tetrahydro-2′H,5H-spiro[1,4-oxazino[4,3-a][1,8]naphthyridine-6,5′-pyrimidine]-2′,4′,6′(1′H,3′H)-trione]",5.15
19,"C[C@@H]1CN2c3ccc(-c4nccs4)nc3CC3(C(=O)NC(=O)NC3=O)[C@H]2[C@H](C)O1 (relative stereo) [Example 85, (2R,4S,4aS)-rel-2,4-Dimethyl-8-(1,3-thiazol-2-yl)-1,2,4,4a-tetrahydro-2′H,6H-spiro[1,4-oxazino[4,3-a][1,5]naphthyridine-5,5′-pyrimidine]-2′,4′,6′(1′H,3′H)-trione]",5.10
20,"C[C@@H]1CN2c3ncc(-c4nc5ccccc5s4)cc3CC3(C(=O)NC(=O)NC3=O)[C@H]2[C@H](C)O1 (relative stereo) [Example 87, (6aS,7S,9R)-rel-3-(1,3-Benzothiazol-2-yl)-7,9-dimethyl-6a,7,9,10-tetrahydro-2′H,5H-spiro[1,4-oxazino[4,3-a][1,8]naphthyridine-6,5′-pyrimidine]-2′,4′,6′(1′H,3′H)-trione]",5.40
21,"C[C@@H]1CN2c3ccc(-c4nc5ccccc5s4)nc3CC3(C(=O)NC(=O)NC3=O)[C@H]2[C@H](C)O1 (relative stereo) [Example 88, (2R,4S,4aS)-rel-8-(1,3-Benzothiazol-2-yl)-2,4-dimethyl-1,2,4,4a-tetrahydro-2′H,6H-spiro[1,4-oxazino[4,3-a][1,5]naphthyridine-5,5′-pyrimidine]-2′,4′,6′(1′H,3′H)-trione]",5.70
22,"C[C@@H]1CN2c3cnc(-c4nc5ccccc5s4)cc3CC3(C(=O)NC(=O)NC3=O)[C@H]2[C@H](C)O1 (relative stereo) [Example 89, (6aS,7S,9R)-rel-3-(1,3-benzothiazol-2-yl)-7,9-dimethyl-6a,7,9,10-tetrahydro-2′H,5H-spiro[1,4-oxazino[4,3-a][1,7]naphthyridine-6,5′-pyrimidine]-2′,4′,6′(1′H,3′H)-trione]",4.96
23,"C[C@@H]1CN2c3ncc(-c4cncn4C)cc3CC3(C(=O)NC(=O)NC3=O)[C@H]2[C@H](C)O1 (relative stereo) [Example 90, (6aS,7S,9R)-rel-7,9-Dimethyl-3-(1-methyl-1H-imidazol-5-yl)-6a,7,9,10-tetrahydro-2′H,5H-spiro[1,4-oxazino[4,3-a][1,8]naphthyridine-6,5′-pyrimidine]-2′,4′,6′(1′H,3′H)-trione]",4.68

# Reference: US20110178064A1, “SPIRO CONDENSED […] DERIVATIVES FOR USE AS ANTIBACTERIAL” (A[…]&D, priority 2007, published 2011)
